Measurements reported in PubChem BioAssay (NCI).
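Step 1: Grow cells in 96-well plates. Step 2: Expose to compound for 48 hours at 5 concentrations. Step 3: Interpolate endpoints linearly; if unreached, use highest concentration. TGI: total growth inhibition.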

Tests used:
Test in all cases: DTP human tumour cell line panel, 48 h
[1] = tested on: 786-0 renal
[2] = tested on: A498 renal
[3] = tested on: A549 NSCLC
[4] = tested on: ACHN renal
[5] = tested on: CAKI-1 renal
[6] = tested on: CCRF-CEM leukemia
[7] = tested on: COLO 205 colon
[8] = tested on: DU-145 prostate
[9] = tested on: EKVX NSCLC
[10] = tested on: HCC-2998 colon
[11] = tested on: HCT-116 colon
[12] = tested on: HCT-15 colon
[13] = tested on: HL-60(TB) leukemia
[14] = tested on: HOP-62 NSCLC
[15] = tested on: HOP-92 NSCLC
[16] = tested on: HS 578T breast
[17] = tested on: HT29 colon
[18] = tested on: IGROV1 ovarian
[19] = tested on: K-562 leukemia
[20] = tested on: KM12 colon
[21] = tested on: LOX IMVI melanoma
[22] = tested on: MALME-3M melanoma
[23] = tested on: MCF7 breast
[24] = tested on: MDA-MB-231 breast
[25] = tested on: MDA-MB-435
[26] = tested on: MDA-N
[27] = tested on: MOLT-4 leukemia
[28] = tested on: NCI-H226 lung
[29] = tested on: NCI-H23 lung
[30] = tested on: NCI-H460 lung
[31] = tested on: NCI-H522 lung
[32] = tested on: NCI/ADR-RES ovarian
[33] = tested on: OVCAR-3 ovarian
[34] = tested on: OVCAR-4 ovarian
[35] = tested on: OVCAR-5 ovarian
[36] = tested on: OVCAR-8 ovarian
[37] = tested on: PC-3 prostate
[38] = tested on: RPMI-8226 leukemia
[39] = tested on: RXF 393 renal
[40] = tested on: SF-295 CNS
[41] = tested on: SF-539 CNS
[42] = tested on: SK-MEL-28 melanoma
[43] = tested on: SK-MEL-5 melanoma
[44] = tested on: SN12C renal
[45] = tested on: SNB-19 CNS
[46] = tested on: SNB-75 CNS
[47] = tested on: SR leukemia
[48] = tested on: SW-620 colon
[49] = tested on: TK-10 renal
[50] = tested on: U251 CNS
[51] = tested on: UACC-257 melanoma
[52] = tested on: UO-31 renal

Measured: TGI

O=C(Nc1nc(C23CC4CC(CC(C4)C2)C3)cs1)c1cc2cc(Cl)ccc2oc1=O
> 100 µM: [1] | [2] | [3] | [4] | [5] | [6] | [7] | [8] | [9] | [10] | [11] | [12] | [13] | [14] | [15] | [16] | [17] | [18] | [19] | [20] | [21] | [22] | [23] | [24] | [25] | [26] | [27] | [28] | [29] | [30] | [31] | [32] | [33] | [34] | [35] | [36] | [37] | [38] | [39] | [40] | [41] | [42] | [43] | [44] | [45] | [46] | [47] | [48] | [49] | [50] | [51] | [52]
